Experiments:
[1] = system: Severe acute respiratory syndrome coronavirus 2; assay: Inhibition of recombinant SARS-CoV-2 main protease assessed as Kinact/Ki using ALNDFSNSGSDVLYQPPQTSITSAVLQSGFRKMAFPS-NH2 as substrate preincubated for 15 mins followed by substrate addition and measured after 30 mins by Solid phase extraction coupled with MS analysis; conditions: time 45.0 min
[2] = system: SARS-CoV-2; assay: Antiviral activity against SARS-CoV-2 MT007544.1 infected in African green monkey Vero E6 cells pre infected with virus for 1 hrs followed by incubation with cells for 2 hrs and measured after 20 hrs by ELISPOT reader based analysis; format: functional, organism-based; conditions: Severe acute respiratory syndrome coronavirus 2, MT007544.1, Vero C1008
[3] = Inhibition of recombinant SARS-CoV-2 main protease using ALNDFSNSGSDVLYQPPQTSITSAVLQSGFRKMAFPS-NH2 as substrate preincubated for 15 mins followed by substrate addition and measured after 30 mins by Solid phase extraction coupled with MS analysis; set-up: species or system Severe acute respiratory syndrome coronavirus 2
[4] = system: Vero C1008; assay: Cytotoxicity against African green monkey Vero E6 cells; format: toxicity, cell-based; conditions: chlorocebus sabaeus

Structure (SMILES)	K [1]	EC50 [2]	IC50 [3]	Activity [4]
C#C[C@H](C[C@@H]1CCNC1=O)NC(=O)[C@@H]1[C@@H]2[C@H](CN1C(=O)[C@@H](NC(=O)C(F)(F)F)C(C)(C)C)C2(C)C	597 M⁻¹ s⁻¹			
C#C[C@H](C[C@@H]1CCNC1=O)NC(=O)[C@@H]1C[Si](C)(C)CN1C(=O)[C@@H](NC(=O)OC)C(C)(C)C	3640 M⁻¹ s⁻¹	> 50000 nM	340 nM	
C#C[C@H](C[C@@H]1CCNC1=O)NC(=O)[C@@H]1C[Si](C)(C)CN1C(=O)[C@@H](NC(=O)C(F)(F)F)C(C)(C)C		46000 nM	280 nM	
COC(=O)N[C@H](C(=O)N1C[Si](C)(C)C[C@H]1C(=O)N[C@H](C#Cc1ccccc1)C[C@@H]1CCNC1=O)C(C)(C)C		> 50000 nM	> 50000 nM	
COC(=O)N[C@H](C(=O)N1C[Si](C)(C)C[C@H]1C(=O)N[C@H](C#N)C[C@@H]1CCNC1=O)C1CCCCC1			113 nM	
COC(=O)N[C@H](C(=O)N1C[Si](C)(C)C[C@H]1C(=O)N[C@H](C#N)C[C@@H]1CCNC1=O)C(C)(C)C		> 50000 nM	59 nM	Non-toxic
COC(=O)N[C@H](C(=O)N1CC(C)(C)C[C@H]1C(=O)N[C@H](C#N)C[C@@H]1CCNC1=O)C(C)(C)C		> 50000 nM	30 nM	Non-toxic
CC(C)(C)[C@H](NC(=O)C(F)(F)F)C(=O)N1C[C@H]2[C@@H]([C@H]1C(=O)N[C@H](C#N)C[C@@H]1CCNC1=O)C2(C)C [NIRMATRELVIR]				Non-toxic
CC(C)(C)[C@H](NC(=O)C(F)(F)F)C(=O)N1C[Si](C)(C)C[C@H]1C(=O)N[C@H](C#N)C[C@@H]1CCNC1=O		24000 nM	41 nM	Non-toxic
C#C[C@H](C[C@@H]1CCNC1=O)NC(=O)[C@@H]1CC(C)(C)CN1C(=O)[C@@H](NC(=O)OC)C(C)(C)C		> 50000 nM	320 nM	
